# pIC50: −log10 of the molar value.
# Key:
# [1] = target: T1, human Melanin concentrating hormone receptor 1 (MCH1r) (Homo sapiens, UniProt Q99705); assay: MCH1 receptor radioligand binding (125I-MCH, CHO-K1 cell membranes); details: CHO-K1 membranes expressing human MCH1r, 30° C., 60 minutes, read-out: IC50 in human MCHr binding assay
# T1 construct: expressed in transfected cells; host or cells: CHO-K1
# Procedure: MCH1 Receptor Radioligand Binding.
# Assays were performed on membranes prepared from CHO—K1 cells expressing the human Melanin concentrating hormone receptor 1 (MCH1r). Assays were performed in a 96-well plate format in a final reaction volume of 200 μl per well. Each well contained 6 μg of membrane proteins diluted in binding buffer (50 mM Tris, 3 mM MgCl2, 0.05% bovine serum albumin and the radioligand ^125I-MCH (IM344 Amersham) was added to give 10 000 cpm (counts per minute) per well. Each well contained 2 μl of the appropriate concentration of competitive antagonist prepared in DMSO and left to stand at 30° C. for 60 minutes. Non-specific binding was determined as that remaining following incubation with 1 μM MCH (Melanin concentrating hormone, H-1482 Bachem). The reaction was terminated by transfer of the reaction to GF/A filters using a Micro96 Harvester (Skatron Instruments, Norway). Filters were washed with assay buffer. Radioligand retained on the filters was quantified using al450 Microbeta TRILUX (Wallac, Finland).
# Non-specific binding was subtracted from all values determined. Maximum binding was that determined in the absence of any competitor following subtraction of the value determined for non-specific binding. Binding of compounds at various concentrations was plotted according to the equation
# and IC50 estimated where A is the bottom plateau of the curve i.e. the final minimum y value B is the top of the plateau of the curve i.e. the final maximum y value C is the x value at the middle of the curve. This represents the log EC50 value when A+B=100 D is the slope factor. x is the original known x values. y is the original known y values.
# [2] = target: T2, recombinant hMCHr (Homo sapiens, UniProt Q99705); assay: MCH1 functional assay ([35S]GTPγS binding, membranes with recombinant hMCHr); assay type: biochemical; details: ED80 concentration of MCH, 45 min at 30° C., read-out: IC50 of antagonists in MCH1 functional assay
# T2 construct: purchased Euroscreen
# T2 sequence (Q99705 whole entry): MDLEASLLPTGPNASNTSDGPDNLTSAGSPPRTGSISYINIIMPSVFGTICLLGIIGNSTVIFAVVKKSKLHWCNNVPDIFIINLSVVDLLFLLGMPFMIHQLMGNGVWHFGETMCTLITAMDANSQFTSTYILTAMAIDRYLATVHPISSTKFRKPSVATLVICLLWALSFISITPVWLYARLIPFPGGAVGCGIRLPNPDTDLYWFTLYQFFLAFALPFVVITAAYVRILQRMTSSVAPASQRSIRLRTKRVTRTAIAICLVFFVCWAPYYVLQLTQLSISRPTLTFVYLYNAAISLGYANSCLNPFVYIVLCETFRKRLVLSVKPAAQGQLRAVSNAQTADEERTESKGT
# Procedure: Membranes expressing recombinant hMCHr (5.45 pmol/mg protein; Euroscreen) were prepared in assay buffer (50 mM HEPES, 100 mM NaCl, 5 mM MgCl2, 1 mM EDTA, 200 μM DTT, 20 μM GDP (Sigma) containing 0.1 μg/ml BSA, pH7.4) before assay. The assays were performed using membranes at 6 μg/well in an assay volume of 200 μl and the appropriate concentrations of compounds prepared in DMSO. The reaction was started by addition of 0.056 nM [^35S]GTPγS (Specific activity >1000 Ci/mmol; Amersham) and an ED80 concentration of MCH (determined for each membrane and each MCH batch). Non-specific binding was determined using 20 μM non-radiolabelled GTPγS. Plates were incubated for 45 min at 30° C. Free and bound GTPγS were separated by filtration binding using GF/B filter mats presoaked in wash buffer (50 mM Tris, 5 mM MgCl2, 50 mM NaCl, pH 7.4) using a Micro96 cell harvester (Skatron Instruments) and the filters then dried at 50° C. before counting using al450 Microbeta TRILUX (Wallac).
# Data are means ±SD for experiments performed in triplicate. IC50 values of antagonists were determined using non-linear regression analysis of concentration response curves using Activity Base.
# [3] = system: Male Wistar-Hanover rats; assay: Pharmacodynamic effect in rat (food intake and body weight after fasting); assay type: in vivo; details: 16.7 μmol/kg i.p. amorphous nanoparticle formulation, time interval 0-4 h
# Procedure: Pharmacodynamic Effect in Rat
# Male Wistar-Hanover rats (Charles River, 300-350 grams) were acclimated to individually housing in conventional cages (Makrolon III) with 12:12 hour light-dark photoperiod (lights on at 06.00) in a temperature (20-22° C.) and humidity (40-60%) controlled room. R-3 lab chow (Lactanin, Vadstena, Sweden) and tap water from bottles were allowed ad libidum. At 16.00 on the day before experiments, animals were weighed & food (but not water) was removed. At 08.00 on experiment day, animals were weighed & compound (i.p. amorphous nanoparticle formulation, 5 ml/kg) or vehicle (3-10% DMA depending on compound formulation) administered. Animals were returned to their home cages & given access to a weighed amount of food. This food was then re-weighed 1, 2, 4, 6 & 24 hours later, and food consumption calculated by the difference from initial food weight.
# Animals were further weighed at the 24-hr timepoint, and change in body weight over the treatment period was calculated.
# T1 sequence (Q99705 whole entry): as above
pIC50 [1],pIC50 [2],SMILES,reduced food intake [3] [%]
7.18,7.18,"O=C(CCc1cccc(Cl)c1)NC1CCN(Cc2ccn(-c3ccc(C(F)(F)F)cc3)c2)CC1 [Example 29, 3-(3-chlorophenyl)-N-[1-({1-[4-(trifluoromethyl)phenyl]-1H-pyrrol-3-yl}methyl)piperidin-4-yl]propanamide]",–
7.57,–,"O=C(COc1ccc(F)c(F)c1)NC1CCN(Cc2ccn(-c3ccc(C(F)(F)F)cc3)c2)C1 (stereo not drawn) [Example 44, 2-(3,4-difluorophenoxy)-N-[1-({1-[4-(trifluoromethyl)phenyl]-1H-pyrrol-3-yl}methyl)pyrrolidin-3-yl]acetamide]",–
–,–,"N#Cc1ccccc1OCC(=O)NC1CCN(Cc2ccn(-c3ccc(C(F)(F)F)cc3)c2)CC1 [Example 34, 2-(2-cyanophenoxy)-N-[1-({1-[4-(trifluoromethyl)phenyl]-1H-pyrrol-3-yl}methyl)piperidin-4-yl]acetamide]",20
6.98,6.95,"O=C(COc1cccc(Cl)c1)NC1CCN(Cc2ccc(-c3ccc(Cl)cc3)o2)CC1 [Example 8, 2-(3-chlorophenoxy)-N-(1-{[5-(4-chlorophenyl)-2-furyl]methyl}piperidin-4-yl)acetamide]",–
6.78,7.35,"COc1ccc(-n2ccc(CN3CCC(NC(=O)COc4cccc(Cl)c4)CC3)c2)cc1 [Example 3, 2-(3-chlorophenoxy)-N-({[1-(4-methoxyphenyl)-1H-pyrrol-3-yl]methyl}piperidin-4-yl)acetamide]",–
7.41,–,"O=C(COc1cccc(Cl)c1)NC1CN(Cc2ccn(-c3ccc(C(F)(F)F)cc3)c2)C1 [Example 41, 2-(3-chlorophenoxy)-N-[1-({1-[4-(trifluoromethyl)phenyl]-1H-pyrrol-3-yl}methyl)azetidin-3-yl]acetamide]",–
